Assay results taken from patent US20230365602A1, “COMPOUND FOR USE IN THE TREATMENT OF PROTOZOAL DISEASES AND PROCESS FOR PRODUCTION OF SAID COMPOUND” (QUADREL S.R.L., priority 2020, published 2023).
Converted amounts (≈) assume the structure as drawn. “And” between values parts separate entries of the source, which are not always exact repeats. Equal entries are not always repeated. Where two headings read alike, the source gives them in different places.

Assays:
[1] = Maximum tolerated dose and dose range finding, 7 days oral gavage; details: for average weight loss at the end of the experiment: 7 days
Description: The primary objective of the dose range finding study is to establish the maximum tolerated dose (MTD) as determined by parameters such as clinical signs and reductions in body weight and food consumption, and to provide the data for appropriate dose selection in subsequent regulatory toxicology studies.

[2] = Apparent solubility by nephelometry; type: physicochemical; details: kinetic from dmso stock
[3] = tested on: T. brucei brucei Lister 427 expressing red-shifted luciferase; test: Efficacy in HAT mice model (acute T. b. brucei infection), live imaging; type: in vivo, BALB/c mice; details: 50 mg/kg/day PO, 7 consecutive days
Description: (B) Overall evolution of parasite burden assessed by live imaging using IVIS Lumina LT (Perkin Elmer) during and after treatment. T. b. brucei Lister 427 expressing red-shifted luciferase was used in these experiments. DX is the day post treatment. (C) Quantification of bioluminescent signal plotted as average radiance (p/s/cm^2/sr) during and after treatment.
In addition, 5-cyclopentadecylpentyl (2-(trimethylammonio) ethyl) phosphate (19) was effective per os in vivo against T. brucei acute model of infection and also against the long lasting chronic infection model. […] The daily treatment with 50 mg/kg for 13 days lead to a significant decrease of infection and increase in animal survival. […] Altogether 5-cyclopentadecylpentyl (2-(trimethylammonio) ethyl) phosphate (19) is effective in the BALB/c infection model for T. brucei being a possible therapeutical option both for HAT stage I and II.
T. brucei brucei Lister 427 expressing red-shifted luciferase was used in these experiments as described for L. infantum in vivo infection in (Graça N A et al., Antimicrob Agents Chemother. 2016 Mar. 25; 60(4):2532-6). The overall evolution of parasite burden assessed by live imaging using IVIS Lumina LT (Perkin Elmer) during and after treatment. […] To confirm this possibility, the treated mice immune system was suppressed with cyclophosphamide. […] The advantage over pentamidine is the oral administration of compound 19 versus ip administration of pentamidine.

[4] = tested on: Leishmania infantum; test: Efficacy in mice infected with Leishmania infantum, 21-day treatment, limiting dilution assay; type: in vivo, BALB/c mice; details: 21 consecutive days
Experimental: The rationale for the choice of four doses was to enable dose dependent information in activity and toxicity. The wait period of 15 days after treatment end enabled the follow up of reappearance of infection and also the determination of the time dependent compound elimination. […] Three days after the last treatment the mice were euthanized and parasite burden (log number of parasites/mg of organ) was evaluated by limiting dilution assay, essentially as described in Tavares. J. et al (Methods Mol Biol, 2019; 1971:289-301), in the spleen (FIG. 2B) and in the liver (FIG. 2C). Data represent the mean±SD, *p<0.05, **p<0.01 (One way ANOVA with Dunnett's test) in comparison with the untreated group.

[5] = tested on: mitochondria; test: Early toxicity: mitochondrial toxicity; type: cell-based
[6] = Cytotoxicity, Human Monocytic Cell Line THP1; type: cell-based
Description: (§1) The in vitro antiparasitic activity of compound 5-cyclopentadecylpentyl (2-(trimethylammonio)ethyl) phosphate (19) against L. infantum (2 species), L. amazonensis, L. donovani and L. major is presented in Table 3, as well as the toxicity against the human monocytic cell Line THP1 and PMA-differentiated THP-1 cells.

[7] = Snapshot pharmacokinetics in plasma after oral gavage; type: in vivo, mice; details: mouse, in vivo, 20 mg/kg; for AUC(0-inf) / Cmax / Tmax / half-life: po
[8] = tested on: L. major SASKH intracellular amastigotes; test: Anti-leishmanial activity, L. major intracellular amastigotes; type: cell-based; details: Leishmania major; read-out: L. major SASKH intracellular amastigotes IC50 ± SEM
Description: as §1

[9] = tested on: A549; test: Early toxicity: A549 cell growth; type: cell-based
[10] = biological target: HDAC8 (Homo sapiens, UniProt Q9BY41); test: HDAC8 activity inhibition; type: biochemical; details: 10 μM
[11] = tested on: L. amazonensis intracellular amastigotes; test: Anti-leishmanial activity, L. amazonensis intracellular amastigotes; type: cell-based; details: Leishmania amazonensis
Description: as §1

[12] = biological target: CYP3A4 (Homo sapiens, UniProt P08684); test: Early toxicity: CYP3A4 inhibition; type: in vitro ADME; details: human, 10 μM
[13] = tested on: L. infantum intracellular amastigotes LEM235; test: Anti-leishmanial activity, L. infantum LEM235 intracellular amastigotes; type: cell-based; details: Leishmania infantum; read-out: L. infantum intracellular amastigotes LEM235 IC50 ± SEM
Description: as §1

[14] = tested on: Human Erythrocytes; test: In vitro Hemolytic Activity in Human Erythrocytes; type: cell-based; details: human erythrocytes
Experimental: The assay, which is an indicator of the toxic insult of a compound on the erythrocyte membrane is performed essentially as described in (Calogeropoulou T. et al., J. Med. Chem. 2008, 51, 897-908). […] [table]

[15] = BALB/c (Compound 19), NMRI (miltefosine)

Chain of CYP3A4 (P08684 whole entry): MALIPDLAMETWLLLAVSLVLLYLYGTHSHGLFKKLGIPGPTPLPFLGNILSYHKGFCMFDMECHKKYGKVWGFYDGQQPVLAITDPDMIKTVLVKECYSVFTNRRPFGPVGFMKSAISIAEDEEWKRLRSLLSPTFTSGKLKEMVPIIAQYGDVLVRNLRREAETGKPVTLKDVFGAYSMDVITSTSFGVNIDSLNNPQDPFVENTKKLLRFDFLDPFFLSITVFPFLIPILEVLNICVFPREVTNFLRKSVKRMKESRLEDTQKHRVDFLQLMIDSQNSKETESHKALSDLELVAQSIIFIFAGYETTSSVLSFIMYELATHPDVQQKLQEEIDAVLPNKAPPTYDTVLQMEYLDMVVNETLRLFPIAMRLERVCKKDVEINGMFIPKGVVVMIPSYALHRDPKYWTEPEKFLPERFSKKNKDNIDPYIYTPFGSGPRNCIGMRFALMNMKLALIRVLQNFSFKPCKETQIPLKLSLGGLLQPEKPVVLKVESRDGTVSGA
Chain of HDAC8 (Q9BY41 whole entry, species assumed): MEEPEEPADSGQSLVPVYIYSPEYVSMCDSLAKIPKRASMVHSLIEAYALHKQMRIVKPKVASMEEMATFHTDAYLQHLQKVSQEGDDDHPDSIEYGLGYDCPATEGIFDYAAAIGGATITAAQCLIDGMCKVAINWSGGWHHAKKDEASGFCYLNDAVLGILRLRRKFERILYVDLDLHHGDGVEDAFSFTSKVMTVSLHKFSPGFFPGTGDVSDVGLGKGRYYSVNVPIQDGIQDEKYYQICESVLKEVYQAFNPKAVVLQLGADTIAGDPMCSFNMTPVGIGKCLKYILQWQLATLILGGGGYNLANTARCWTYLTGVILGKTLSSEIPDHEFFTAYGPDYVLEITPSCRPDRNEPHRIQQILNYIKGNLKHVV

Compound: CCCCCCCCCCCCCCCCOP(=O)([O-])OCC[N+](C)(C)C [Miltefosine, hexadecylphosphocholine, reference compound]
- average weight loss at the end of the experiment ([1]; 50 mg/kg daily oral gavage): 11±3%
- food intake compared to the equivalent treatment of compound 19 ([1]; 100 mg/kg): significant lesser food intake
- day from which weight loss was significant ([1]; 100 mg/kg daily oral gavage): 4 days
- average weight loss at the end of the experiment ([1]; 100 mg/kg daily oral gavage): 19±6%
- MTD at 7 days ([1]; BALB/c, mouse, in vivo, oral): 50 mg/kg
- solubility ([2]; pH 1.6, simulated gastric fluid): 12.5 µM (≈ 5.09 µg/mL)
- solubility ([2]; pH 5, fessif): > 100 µM
- solubility ([2]; pH 6.5, fassif): > 100 µM
- solubility ([2]; pH 7.4, aqueous buffer): 25 µM (≈ 10.2 µg/mL)
- solubility ([2]; water): 25 µM (≈ 10.2 µg/mL)
- infection outcome (words) [3]: no in vivo activity
- infection outcome (words) ([3]; listed as miltefosine): did not work at all
- parasite burden reduction, liver ([4]; miltefosine 2.5 mg/kg): 98%
- parasite burden in the spleen ([4]; miltefosine 10 mg/kg, oral gavage): one of the animals presented detected parasites in the spleen
- parasite burden ([4]; miltefosine 20 mg/kg, oral gavage): maintained parasite burden under the detection limit
- parasite burden in the liver ([4]; miltefosine 20, 10, 5 mg/kg): parasite burdens under the detection limit
- parasite burden reduction, spleen ([4]; miltefosine lower doses (5 and 2.5 mg/kg)): more than 99%
- Ang % Toxicity Mitochondria ([5]; 10 μM, Table 5): 3.99 ± 8.95 (10 μM) %
- % mitochondrial toxicity ([5]; at 1 μM): 3.39 ± 8.95%
- CC50 [6]: 28.6 ± 2.48 µM
- AUC(0-inf) [7, 15]: 2.4e+06 ng·h/mL and 5960 µM·h
- Cmax [7, 15]: 30600 ng/mL and 75.1 µM
- Tmax [7, 15]: 24 h
- half-life [7, 15]: 43.3 ± 5.5 h
- Ke (h − 1) ([7]; BALB/c): 0.016 ± 0.002 h − 1
- AUC(0-inf) ([7]; BALB/c): 2.4e+06 ng·h/mL and 5960 µM·h
- Cmax ([7]; BALB/c): 30600 ng/mL and 75.1 µM
- Tmax ([7]; BALB/c): 24 h
- half-life ([7]; BALB/c): 43.3 ± 5.5 h
- IC50 [8]: 43.7 ± 8.34 µM
- Avg % Cell growth A549 ([9]; 10 μM, Table 5): 95.80 ± 15.78 (10 μM) %
- % cell growth A549 ([9]; at 1 μM): 95.8 ± 15.78%
- inhibition of the activity of HDAC8 [10]: did not inhibit
- IC50 [11]: 14.2 µM
- inhibition at 10 µM ([12]; Table 5, read-out: Avg % inhibition CYP3A4): 8.39 ± 8.99%
- inhibition at 10 µM ([12]; mean ± SD, Table 4a, read-out: % inhibition CYP3A4): 8.39 ± 8.99%
- IC50 [13]: 6.7 ± 1 µM
- Hemolysis at 100 μM (%) ([14]; 100 μM): 96.1%
- Hemolysis, HC50 [14]: 38.3 ± 2.8 µM
